Data on 3 compounds can be found in patent US12527814B2, “Treatment of an ocular infection, composition and methods thereof” (priority 2019, dated 2026).

In one data set the test system is Tsukamurella. The note with it: literature refs 3, 12; cited from earlier work.
Data set [1] concerns T. pulmonis-PW1004. Description: Treatment of experimental Tsukamurella keratitis in rabbits. The protocol: 6.4.4 Development of a rabbit model for Tsukamurella keratitis. Bacterial suspensions used to infect rabbits were prepared by culturing T. pulmonis-PW1004 in BHI for 48 h. Eight male NZW rabbits, 1.5-2.0 kg, were inoculated intrastromally as described previously^37. Corneas of 4 rabbits were injected with approximately 10 μl (i.e., 10^6 CFU) of T. pulmonis-PW1004 using a microliter syringe with a 30 G needle. Another 4 rabbit corneas were challenged with plain culture medium as the control. Rabbits were monitored daily for signs of disease. At 24 h PI, rabbit eyes were photographed, evaluated for pathology, and sacrificed. After euthanasia, the corneas of each rabbit were surgically removed for histopathological and immunohistochemical analyses and bacterial enumeration.
6.4.5 Treatment of experimental Tsukamurella keratitis. Efficacy of the two antibiotics, topical 0.5% Cravit® levofloxacin (Santen Pharmaceutical Company, Japan) and 0.02% PHMB (Lonza, Switzerland), for the treatment of Tsukamurella keratitis were evaluated, respectively. Tsukamurella keratitis was first established in 12 NZW rabbits (n=4 per group) using procedures as described above. Infection was allowed to proceed for 24 h before initiation of antibiotic therapy. These 12 NZW rabbits were divided into 3 topical treatment groups: (1) 0.5% levofloxacin, (2) 0.02% PHMB, and (3) saline. Treatment regimens of levofloxacin and PHMB were performed according to Fiscella et al. and Kowalski et al., respectively, with slight modifications^16,17. For the first group of rabbits treated with levofloxacin (n=4), drops (50 μl) of levofloxacin were applied to the affected eyes hourly for 10 doses over 3 days. For the second group of rabbits treated with PHMB (n=4), drops (50 μl) of PHMB were applied to the affected eyes hourly for 8 doses over 3 days. Rabbits in the third control group (n=4) received the same regimen of sterile saline (0.85% NaCl) hourly for 10 doses over 3 days. In addition to these 3 treatment groups, two extra NZW rabbits without infection were used as controls (i.e., mock-infected and mock-treated rabbits), receiving the same regimen of saline for 3 days. One hour after the final instillation of the antibiotics and saline drops, rabbit eyes were photographed, evaluated for pathology, and sacrificed. The treatment efficacy was compared and evaluated by the quantitative culture and histopathological analysis of the infected corneas.
6.4.6 Quantification of Tsukamurella cells. To quantify the number of viable Tsukamurella in the cornea, the cornea harvested from each rabbit was cut into smaller pieces using a sterile scalpel. The corneal pieces were placed into a sterile tube containing 500 μl of PBS (pH 7.2). Each tissue was homogenized, and homogenates were serially diluted 10-fold in PBS (pH 7.2). One hundred microliters of each diluted sample was plated in triplicate on the BHI agar and incubated at 37° C. under aerobic conditions for 48 h. The number of bacteria was determined and expressed as CFU/cornea.
To examine the histopathology of corneal tissues of rabbits challenged with the PW1004-WT and its derivative mutants, excised infected eyes, including the cornea of challenged rabbits, were subjected to histopathological examination. Corneal tissues harvested from the rabbits were fixed in 10% neutral-buffered formalin, embedded in paraffin, and stained with hematoxylin and eosin (H&E) according to Fischer et al.^39.

Data set [2] deals with T. pulmonis-PW1004. Conditions: for Zone of inhibition: 6 mm disk, 48 h, 37° C. The source says:
Disk diffusion assay was initially used to determine the susceptibility of T. pulmonis-PW1004 against various concentrations of PHMB. Briefly, standard paper disks, 6 mm in diameter, impregnated with different dilutions of PHMB (0.0005%, 0.001%, 0.0025%, 0.005%) were placed onto BHI agar plates inoculated with overnight culture of a 0.5 McFarland standard prepared from T. pulmonis-PW1004, following standard procedures^15. Paper disks soaked in 0.85% NaCl were used as the control. Zones of inhibition were measured after 48 h of incubation at 37° C. under aerobic conditions. […] Next, we re-examined the susceptibility of the 4 contact lens solutions against the 7 Tsukamurella species by adjusting the final concentration of PHMB to 0.0025%, following the procedures as described in the previous paragraph.

In data set [3] the test system is T. pulmonis-PW1004. The protocol:
(§1) 6.4.9 In vitro susceptibility of planktonic cultures of Tsukamurella against contact lens and PHMB solutions. A susceptibility test was performed following the procedures as described in FDA/ISO14729 stand-alone procedure for disinfecting products^13. Briefly, 0.1 ml of 1×10^8 CFUs/ml bacterial suspension from 7 different Tsukamurella species was added into 10 ml each of the 4 commercial contact lens solutions, respectively, and the mixture was incubated at room temperature according to the manufacturer's recommended disinfection time (Table 1). After incubation, a 1-ml aliquot was withdrawn from each mixture and added to 9 ml of Dey-Engley neutralizing broth (Sigma, USA) for 15 min at room temperature for neutralization of the preservative. The mixture was then serially diluted, and 100 μl of each diluted sample was plated in triplicate on the BHI agar for sampling of viable bacteria. P. aeruginosa ATCC27853 was used as a control. The mean logarithmic reduction was calculated. According to the guideline, only a contact lens solution capable of reducing the viability of starting concentration of bacteria by 3-log is defined as satisfactory. All experiments were performed in triplicate and repeated 3 times along with the control strain.

Another data set has as its system T. tyrosinosolvens-PW899. The procedure:
as §1

Setting [4] is: PHMB 0.005% compared with 0.0025%.
Setting [5] is: 0.02% PHMB topical for 3 days, compared to saline control rabbits.

Read-outs that look alike come from different tables or passages of the source.

On to `O=C(N[C@H](CO)[C@H](O)c1ccc([N+](=O)[O-])cc1)C(Cl)Cl` [chloramphenicol], for which, in the data set with Tsukamurella, the “susceptibility of Tsukamurella to topical antibiotic eye drops” value is “generally resistant”.
Take `C[C@H]1COc2c(N3CCN(C)CC3)c(F)cc3c(=O)c(C(=O)O)cn1c23` [levofloxacin]: in the data set with T. pulmonis-PW1004 [1] (rabbit, in vivo), the “corneal perforation and adverse signs” value is recorded as “corneal perforations with severe discharges accompanied by behavioral abnormalities”.
With polyhexamethylene biguanide [PHMB], the Zone of inhibition is given as 0 mm in the data set on T. pulmonis-PW1004 [2] (PHMB concentration 0.0005%), 0 mm in the data set with T. pulmonis-PW1004 [2] (PHMB concentration 0.001%), 13 mm in the data set on T. pulmonis-PW1004 [2] (PHMB concentration 0.0025%) and 14 mm in the data set on T. pulmonis-PW1004 [2] (PHMB concentration 0.005%). Besides, the “minimal concentration that achieved good efficacy” value in the data set with T. pulmonis-PW1004 [2] (disk diffusion, preliminary results) came to 0.0025%. Moreover, the log reduction is recorded as less than 3 log with T. pulmonis-PW1004 [3] (PHMB 0.0005%); less than 3 log with T. pulmonis-PW1004 [3] (PHMB 0.001%); 3 log in the data set on T. pulmonis-PW1004 [3] (PHMB 0.0025%); less than 3 log in the data set with T. tyrosinosolvens-PW899 (PHMB 0.0005%); less than 3 log with T. tyrosinosolvens-PW899 (PHMB 0.001%); 3 log in the data set with T. tyrosinosolvens-PW899 (PHMB 0.0025%). The “further reduction of bacterial numbers” value with T. pulmonis-PW1004 [3] (setting [4]) and in the data set with T. tyrosinosolvens-PW899 (setting [4]) was “could not be further reduced” in each case. Moreover, in the data set with T. pulmonis-PW1004 [1] (setting [5]), the “PMN infiltration in corneal stroma and epithelium” value is “less evident”. For the same compound, the “histological examination: stromal edema and capillary formation” value in the data set on T. pulmonis-PW1004 [1] (setting [5]) is on record as “lower degree of stromal edema as well as capillary formation”. Further, the “keratitis symptoms, gross appearance” value in the data set on T. pulmonis-PW1004 [1] (setting [5]) is “keratitis symptoms became less severe”. The “number of bacteria recovered from the cornea” value in the data set on T. pulmonis-PW1004 [1] (0.02% PHMB topical, hourly 8 doses over 3 days, started 24 h PI, P<0.01 vs saline) came out at 1.05±0.07 log. The corneal perforation entry in the data set on T. pulmonis-PW1004 [1] (0.02% PHMB topical, whole course of treatment) is “did not observe corneal perforation”. The “toxicity in rabbit corneal tissues” value with T. pulmonis-PW1004 [1] (PHMB 0.02% topical) was “no toxicity”.
